According to ChEMBL document CHEMBL3232730, “Design, synthesis and bioevaluation of N-trisubstituted pyrimidine derivatives as potent aurora A kinase inhibitors” (Eur J Med Chem, 2014):
pIC50: −log10 of the molar value.

Tests used:
[1] = test system: DU-145; assay: Antiproliferative activity against human DU145 cells assessed as cell viability after 72 hrs by CCK8 assay; assay type: functional, cell-based; settings: for pIC50: Homo sapiens, DU-145, 72 h, read-out: IC50
[2] = Cell cycle arrest in human CNE2 cells assessed as accumulation at G1 phase at 1 uM after 24 hrs by propidium iodide staining-based flow cytometric analysis (reference value: 52.5%); assay type: functional; settings: CNE-2
[3] = test system: MDA-MB-231; assay: Antiproliferative activity against human MDA-MB-231 cells assessed as cell viability after 72 hrs by CCK8 assay; assay type: functional, cell-based; settings: for pIC50: Homo sapiens, MDA-MB-231, 72 h, read-out: IC50
[4] = test system: A549; assay: Antiproliferative activity against human A549 cells assessed as cell viability after 72 hrs by CCK8 assay; assay type: functional, cell-based; settings: A549, 72 h
[5] = test system: PC-3; assay: Antiproliferative activity against human PC3 cells assessed as cell viability after 72 hrs by CCK8 assay; assay type: functional, cell-based; settings: for pIC50: Homo sapiens, PC-3, 72 h, read-out: IC50
[6] = test system: HL-60; assay: Antiproliferative activity against human HL60 cells assessed as cell viability after 72 hrs by CCK8 assay; assay type: functional, cell-based; settings: for pIC50: Homo sapiens, HL-60, 72 h, read-out: IC50
[7] = Cell cycle arrest in human CNE2 cells assessed as accumulation at polyploid period at 1 uM after 24 hrs by propidium iodide staining-based flow cytometric analysis (reference value: […]); assay type: functional; settings: CNE-2
[8] = test system: K562; assay: Antiproliferative activity against human K562 cells assessed as cell viability after 72 hrs by CCK8 assay; assay type: functional, cell-based; settings: for pIC50: Homo sapiens, K562, 72 h, read-out: IC50
[9] = test system: NCI-N87; assay: Antiproliferative activity against human NCI-N87 cells assessed as cell viability after 72 hrs by CCK8 assay; assay type: functional, cell-based; settings: for pIC50: Homo sapiens, NCI-N87, 72 h, read-out: IC50
[10] = test system: A-431; assay: Antiproliferative activity against human A431 cells assessed as cell viability after 72 hrs by CCK8 assay; assay type: functional, cell-based; settings: for pIC50: Homo sapiens, A-431, 72 h, read-out: IC50
[11] = test system: MCF7; assay: Antiproliferative activity against human MCF7 cells assessed as cell viability after 72 hrs by CCK8 assay; assay type: functional, cell-based; settings: for pIC50: Homo sapiens, MCF7, 72 h, read-out: IC50
[12] = Cell cycle arrest in human CNE2 cells assessed as accumulation at S phase at 1 uM after 24 hrs by propidium iodide staining-based flow cytometric analysis (reference value: 14.7%); assay type: functional; settings: CNE-2
[13] = target: T1, Aurora kinase A (Homo sapiens, UniProt O14965); assay: Inhibition of Aurora A (unknown origin) using FAM-labeled peptide as substrate preincubated for 10 mins followed by substrate addition measured after 60 mins
T1 sequence (O14965 whole entry): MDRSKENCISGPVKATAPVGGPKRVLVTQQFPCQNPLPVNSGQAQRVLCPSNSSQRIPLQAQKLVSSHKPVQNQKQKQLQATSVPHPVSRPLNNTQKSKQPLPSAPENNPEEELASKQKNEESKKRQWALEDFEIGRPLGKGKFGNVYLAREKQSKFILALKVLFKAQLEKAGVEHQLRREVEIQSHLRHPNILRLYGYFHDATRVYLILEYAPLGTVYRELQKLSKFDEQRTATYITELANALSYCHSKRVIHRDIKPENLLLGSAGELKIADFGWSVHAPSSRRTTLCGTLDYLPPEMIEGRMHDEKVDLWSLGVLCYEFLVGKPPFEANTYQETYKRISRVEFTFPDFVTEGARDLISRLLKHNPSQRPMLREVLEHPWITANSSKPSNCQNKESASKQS

[14] = test system: HCT-116; assay: Antiproliferative activity against human HCT116 cells assessed as cell viability after 72 hrs by CCK8 assay; assay type: functional, cell-based; settings: for pIC50: Homo sapiens, HCT-116, 72 h, read-out: IC50
[15] = Antiproliferative activity against human PANC1 cells assessed as cell viability after 72 hrs by CCK8 assay; assay type: functional, cell-based; settings: PANC-1, 72 h
[16] = test system: U-937; assay: Antiproliferative activity against human U937 cells assessed as cell viability after 72 hrs by CCK8 assay; assay type: functional, cell-based; settings: for pIC50: Homo sapiens, U-937, 72 h, read-out: IC50
[17] = Antiproliferative activity against human SKBR3 cells assessed as cell viability after 72 hrs by CCK8 assay; assay type: functional, cell-based, SK-BR-3; settings: for pIC50: Homo sapiens, SK-BR-3, 72 h, read-out: IC50
[18] = Cell cycle arrest in human CNE2 cells assessed as accumulation at G2/M phase at 1 uM after 24 hrs by propidium iodide staining-based flow cytometric analysis (reference value: 38.2%); assay type: functional; settings: CNE-2
[19] = test system: HeLa; assay: Antiproliferative activity against human HeLa cells assessed as cell viability after 72 hrs by CCK8 assay; assay type: functional, cell-based; settings: for pIC50: Homo sapiens, HeLa, 72 h, read-out: IC50
[20] = Antiproliferative activity against human MOLT4 cells assessed as cell viability after 72 hrs by CCK8 assay; assay type: functional, cell-based, MOLT-4; settings: for pIC50: Homo sapiens, MOLT-4, 72 h, read-out: IC50

Structure (SMILES) | pIC50 [1] | pIC50 [3] | pIC50 [4] | pIC50 [5] | pIC50 [6] | pIC50 [8] | pIC50 [9] | pIC50 [10] | pIC50 [11] | pIC50 [13] | pIC50 [14] | pIC50 [15] | pIC50 [16] | pIC50 [17] | pIC50 [19] | pIC50 [20] | other results
COC(=O)c1ccc(Nc2nc(Nc3cc(C)[nH]n3)cc(N3CCN(C)CC3)n2)cc1 | 6.10 | 6.44 | 5.74 | 5.82 | 6.69 | 6.44 | 4.75 | 6.27 | 5.75 | 7.34 | 6.17 | 5.97 | 6.92 | 5.06 | 5.90 | 6.79 | Activity [2]: 1.7%; Activity [7]: 11.2%; Activity [12]: 2.2%; Activity [18]: 84.3%
Cc1cc(Nc2cc(N3CCN(C)CC3)nc(Nc3ccc(S(N)(=O)=O)cc3)n2)n[nH]1 | 6.03 | 5.92 | 4.78 | 5.36 | 6.67 | 5.84 | 4.62 | 5.56 | 5.57 | 8.30 | 4.91 | 5.06 | 7.00 | 4.80 | 5.51 | 6.19 | –
COC(=O)c1ccc(Nc2nc(Nc3cc(C)[nH]n3)cc(N3CCN(S(=O)(=O)c4ccc(C)cc4)CC3)n2)cc1 | – | – | – | – | – | – | – | – | – | 6.24 | – | – | – | – | – | – | –
Cc1cc(Nc2cc(N3CCN(C)CC3)nc(Nc3ccc(Cl)cc3)n2)n[nH]1 | 5.65 | 6.86 | 6.20 | 5.83 | 7.08 | 6.72 | 5.13 | 6.79 | 6.08 | 7.89 | 5.86 | 6.34 | 7.26 | 5.79 | 6.21 | 7.27 | –
CC(=O)Nc1ccc(Nc2nc(Nc3cc(C)[nH]n3)cc(N3CCN(C)CC3)n2)cc1 | – | – | – | – | – | – | – | – | – | 6.93 | – | – | – | – | – | – | –
Cc1cc(Nc2cc(N3CCN(C)CC3)nc(Nc3cccc([N+](=O)[O-])c3)n2)n[nH]1 | 5.87 | 6.94 | 6.03 | 6.02 | 7.04 | 6.86 | 5.36 | 6.78 | 6.19 | 7.80 | 5.74 | 6.34 | 7.60 | 5.66 | 5.95 | 7.59 | –
COC(=O)c1ccc(Nc2nc(NCCN3CCCCC3)cc(Nc3cc(C)[nH]n3)n2)cc1 | – | – | – | – | – | – | – | – | – | 6.64 | – | – | – | – | – | – | –
Cc1cc(Nc2cc(N3CCN(C)CC3)nc(Nc3ccc(C(=O)O)cc3)n2)n[nH]1 | – | – | 4.71 | – | – | – | – | – | – | 7.49 | – | 4.41 | – | – | – | – | IC50 ([1]; du-145): Not Active; IC50 ([3]; mda-mb-231): Not Active; IC50 ([5]; pc-3): Not Active; IC50 ([6]; hl-60): Not Active; IC50 ([8]; k562): Not Active; IC50 ([9]; nci-n87): Not Active; IC50 ([10]; a-431): Not Active; IC50 ([11]; mcf7): Not Active; IC50 ([14]; hct-116): Not Active; IC50 ([16]; u-937): Not Active; IC50 ([17]; sk-br-3): Not Active; IC50 ([19]; hela): Not Active; IC50 ([20]; molt-4): Not Active
COC(=O)c1ccc(Nc2nc(NCCN3CCOCC3)cc(Nc3cc(C)[nH]n3)n2)cc1 | – | – | – | – | – | – | – | – | – | 7.14 | – | – | – | – | – | – | –
Cc1cc(Nc2cc(N3CCN(C)CC3)nc(Sc3ccc(NC(=O)C4CC4)cc3)n2)n[nH]1 [TOZASERTIB] | 6.40 | 6.90 | 5.52 | 5.24 | 7.42 | 7.10 | 4.94 | 6.62 | 5.89 | – | 5.36 | 5.38 | 7.44 | 5.00 | 5.53 | 7.67 | –
Cc1cc(Nc2cc(N3CCOCC3)nc(Nc3ccc([N+](=O)[O-])cc3)n2)n[nH]1 | 6.20 | 6.69 | 5.98 | 6.01 | 5.80 | 6.45 | 4.76 | 6.48 | 5.97 | 7.96 | 5.59 | 6.24 | 6.68 | 6.02 | 6.22 | 7.22 | –
COc1ccccc1Nc1nc(Nc2cc(C)[nH]n2)cc(N2CCN(C)CC2)n1 | – | – | – | – | – | – | – | – | – | 6.70 | – | – | – | – | – | – | Activity [2]: 38.7%; Activity [7]: 3.7%; Activity [12]: 8.2%; Activity [18]: 49%
